In patent US9359338B2, “Cyclopropanecarboxamido-substitute aromatic compounds as anti-tumor agents” (Crown Bioscience Inc. (Taiwan), priority 2012, dated 2016):

Experiments:
[1] = biological target: KDR kinase (790-1356 AA) (Homo sapiens (Human), UniProt P35968); test: Inhibitory activity at KDR kinase (Lance Ultra Ulight-TK assay); format: biochemical
Summary of the method: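 TR-FRET (Eu-anti-phosphotyrosine PT66) with 20 nM KDR preincubated with compound 20 min at 30 °C in HEPES pH 7.5 buffer with Mg2+/Mn2+, 0.5% DMSO.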

[2] = tested on: PLC-PRF-5 cells; test: Inhibition of proliferation of PLC-PRF-5 cells (ATPlite); format: cell-based; conditions: Homo sapiens, PLC-PRF-5, PLC-PRF-5 cells; read-out: PLC-PRF-5 cell proliferation IC50
Summary of the method: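 PLC-PRF-5 cells in DMEM/10% FBS, seeded 2 h before compound; 8-point 3-fold dilutions from 30 μM final top, 0.3% DMSO. After 96 h at 37 °C, 5% CO2, ATP content read by ATPlite luminescence; IC50 calculated.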

[3] = tested on: pERK in MDA-MB-231 cells; test: Inhibitory activity at pERK (In Cell Western, MDA-MB-231 cells); format: cell-based; conditions: Homo sapiens, MDA-MB-231, MDA-MB-231 cells; read-out: MDA-MB-231 pERK IC50
Summary of the method: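 MDA-MB-231 cells were treated 2 h at 37 °C with 8 compound concentrations in 3-fold dilutions from 30 μM top (0.3% DMSO, DMEM with 0.1% BSA). Cells were then fixed, methanol-permeabilized and immunostained for pERK with PI counterstain. Fluorescence was read on Acumen and IC50 calculated.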

Sequence of KDR kinase (790-1356 AA) (P35968 790-1356): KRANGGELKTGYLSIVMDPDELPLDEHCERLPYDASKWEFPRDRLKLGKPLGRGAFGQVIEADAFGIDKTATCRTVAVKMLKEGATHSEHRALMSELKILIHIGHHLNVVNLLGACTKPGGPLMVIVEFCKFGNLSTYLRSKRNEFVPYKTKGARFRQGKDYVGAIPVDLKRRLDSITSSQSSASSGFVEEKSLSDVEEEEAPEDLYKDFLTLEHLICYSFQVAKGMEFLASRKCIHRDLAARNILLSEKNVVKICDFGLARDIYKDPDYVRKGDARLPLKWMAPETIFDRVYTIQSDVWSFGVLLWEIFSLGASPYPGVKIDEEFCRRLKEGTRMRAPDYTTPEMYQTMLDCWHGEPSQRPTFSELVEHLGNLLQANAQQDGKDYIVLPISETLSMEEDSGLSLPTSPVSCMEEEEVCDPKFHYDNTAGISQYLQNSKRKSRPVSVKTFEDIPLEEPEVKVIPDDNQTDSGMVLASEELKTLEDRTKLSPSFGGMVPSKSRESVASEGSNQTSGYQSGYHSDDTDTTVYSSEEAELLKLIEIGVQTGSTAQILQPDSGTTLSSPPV

Compound: Cc1cc(Oc2cc(NC(=O)C3CC3)ncn2)ccc1NC(=O)Nc1cccc(OC(F)(F)F)c1 [Exe. 079]
- IC50 [1]: 14 nM
- IC50 [2]: 6000 nM
- IC50 [3]: 80 nM

Compound: O=C(Nc1cc(NC2CCNCC2)cc(C(F)(F)F)c1)Nc1ccc(Oc2ccnc(NC(=O)C3CC3)c2)c(F)c1 [Exe. 069]
- IC50 [1]: 17.1 nM
- IC50 [2]: 10500 nM
- IC50 [3]: 337 nM

Compound: O=C(Nc1ccc(Oc2ccnc(NC(=O)C3CC3)c2)c(F)c1)Nc1cc(C(F)(F)F)cc(N2CCOCC2)n1 [Exe. 174]
- IC50 [1]: 5.4 nM
- IC50 [2]: 240 nM
- IC50 [3]: 60.6 nM

Compound: Cc1cc(Oc2ccnc(NC(=O)C3CC3)c2)ccc1NC(=O)Nc1cc(F)cc(C(F)(F)F)c1 [Exe. 192]
- IC50 [1]: 17.5 nM
- IC50 [2]: 2910 nM
- IC50 [3]: 20 nM

Compound: CC(F)(F)c1cccc(NC(=O)Nc2ccc(Oc3cc(NC(=O)C4CC4)ncn3)c(F)c2)c1 [Exe. 103]
- IC50 [1]: 12.4 nM
- IC50 [2]: 373 nM
- IC50 [3]: 300 nM

Compound: O=C(Nc1ccc(Oc2ccnc(NC(=O)C3CC3)c2)c(F)c1)Nc1ccc(C(F)(F)F)c(Cl)c1 [Exe. 185]
- IC50 [1]: 12.3 nM
- IC50 [2]: 1480 nM
- IC50 [3]: 46.4 nM

Compound: Cc1cc(Oc2cc(NC(=O)C3CC3)ncn2)ccc1NC(=O)Nc1cc(N2CCCC2)cc(C(F)(F)F)c1 [Exe. 077]
- IC50 [1]: 14.3 nM
- IC50 [2]: 16500 nM
- IC50 [3]: 169 nM

Compound: CN1CCN(c2cc(C(F)(F)F)cc(NC(=O)Nc3ccc(Oc4ccnc(NC(=O)C5CC5)c4)c(F)c3)n2)CC1 [Exe. 172]
- IC50 [1]: 14.8 nM
- IC50 [2]: 197 nM
- IC50 [3]: 74 nM

Compound: O=C(Nc1ccc(Oc2ccnc(NC(=O)C3CC3)c2)c(F)c1)Nc1ccc(C(F)(F)F)cc1Cl [Exe. 160]
- IC50 [1]: 7.8 nM
- IC50 [2]: 4100 nM
- IC50 [3]: 186 nM

Compound: O=C(Nc1cc(F)cc(C(F)(F)F)c1)Nc1ccc(Oc2ccnc(NC(=O)C3CC3)c2)c(F)c1 [Exe. 155]
- IC50 [1]: 12.1 nM
- IC50 [2]: 571 nM
- IC50 [3]: 195 nM

Compound: O=C(Nc1ccnc(C(F)(F)F)c1)Nc1ccc(Oc2ccnc(NC(=O)C3CC3)c2)c(F)c1 [Exe. 158]
- IC50 [1]: 8.3 nM
- IC50 [2]: 1040 nM
- IC50 [3]: 81.9 nM

Compound: Cc1cc(NC(=O)Nc2cccc(OC(F)(F)F)c2)cc(Oc2cc(NC(=O)C3CC3)ncn2)c1 [Exe. 095]
- IC50 [1]: 434 nM
- IC50 [2]: 19200 nM
- IC50 [3]: 82 nM

Compound: Cc1ccc(Oc2ccnc(NC(=O)C3CC3)c2)cc1NC(=O)Nc1cccc(C(F)(F)F)c1 [Exe. 226]
- IC50 [1]: 9.1 nM
- IC50 [2]: 3530 nM
- IC50 [3]: 11 nM

Compound: Cc1ccc(Oc2ccnc(NC(=O)C3CC3)c2)cc1NC(=O)Nc1ccc(Cl)c(C(C)(F)F)c1 [Exe. 228]
- IC50 [1]: 14.7 nM
- IC50 [2]: 3330 nM
- IC50 [3]: 12 nM

Compound: Cc1cc(NC(=O)Nc2cccc(OC(F)(F)F)c2)ccc1Oc1cc(NC(=O)C2CC2)ncn1 [Exe. 113]
- IC50 [1]: 8.1 nM
- IC50 [2]: 781 nM
- IC50 [3]: 54 nM

Compound: Cc1cc(NC(=O)Nc2ccc(F)c(C(F)(F)F)c2)ccc1Oc1cc(NC(=O)C2CC2)ncn1 [Exe. 111]
- IC50 [1]: 7 nM
- IC50 [2]: 2630 nM
- IC50 [3]: 41 nM

Compound: O=C(Nc1ccc(Oc2ccnc(NC(=O)C3CC3)c2)c(F)c1)Nc1ccc(F)c(OC(F)(F)F)c1 [Exe. 177]
- IC50 [1]: 9.5 nM
- IC50 [2]: 690 nM
- IC50 [3]: 37 nM

Compound: CC(F)(F)c1cccc(NC(=O)Nc2ccc(Oc3ccnc(NC(=O)C4CC4)c3)c(F)c2)c1 [Exe. 180]
- IC50 [1]: 9.8 nM
- IC50 [2]: 152 nM
- IC50 [3]: 31.7 nM

Compound: Cc1cc(Oc2cc(NC(=O)C3CC3)ncn2)ccc1NC(=O)Nc1ccc(F)c(C(C)(F)F)c1 [Exe. 071]
- IC50 [1]: 13.3 nM
- IC50 [2]: 20500 nM
- IC50 [3]: 100 nM

Compound: O=C(Nc1ccc(Oc2cc(NC(=O)C3CC3)ncn2)cc1)Nc1ccc(F)c(C(F)(F)F)c1 [Exe. 100]
- IC50 [1]: 9 nM
- IC50 [2]: 2420 nM
- IC50 [3]: 300 nM

Compound: O=C(Nc1ccc(Oc2ccnc(NC(=O)C3CC3)c2)nc1)Nc1cc(N2CCC(F)CC2)cc(C(F)(F)F)c1 [Exe. 129]
- IC50 [1]: 14.2 nM
- IC50 [2]: 2260 nM
- IC50 [3]: 105 nM

Compound: Cc1cc(Oc2cc(NC(=O)C3CC3)ncn2)ccc1NC(=O)Nc1ccc(NC2CCN(C)CC2)c(C(F)(F)F)c1 [Exe. 078]
- IC50 [1]: 13.3 nM
- IC50 [2]: 879 nM
- IC50 [3]: 28 nM

Compound: O=C(Nc1ccc(F)c(C(F)(F)F)c1)Nc1ccc(Oc2cc(NC(=O)C3CC3)ncn2)cc1Cl [Exe. 089]
- IC50 [1]: 15.2 nM
- IC50 [2]: 6870 nM
- IC50 [3]: 19 nM

Compound: O=C(Nc1cccc(C(F)(F)F)c1)Nc1ccc(Oc2ccnc(NC(=O)C3CC3)c2)cn1 [Exe. 135]
- IC50 [1]: 5.8 nM
- IC50 [2]: 100 nM
- IC50 [3]: 208 nM

Compound: O=C(Nc1ccc(Oc2ccnc(NC(=O)C3CC3)c2)cc1F)Nc1cc(OC(F)(F)F)ccc1F [Exe. 214]
- IC50 [1]: 9.4 nM
- IC50 [2]: 180 nM
- IC50 [3]: 11.5 nM

Compound: Cc1cc(Oc2cc(NC(=O)C3CC3)ncn2)ccc1NC(=O)Nc1cc(NC(C)C)cc(C(F)(F)F)c1 [Exe. 032, N-[6-[4-[[3-(isopropylamino)-5-(trifluoromethyl)phenyl]carbamoylamino]-3-methyl-phenoxy]pyrimidin-4-yl]cyclopropanecarboxamide]
- IC50 [1]: 26 nM
- IC50 [2]: 20000 nM
- IC50 [3]: 115 nM

Compound: O=C(Nc1cc(OC2CCOC2)cc(C(F)(F)F)c1)Nc1ccc(Oc2ccnc(NC(=O)C3CC3)c2)c(F)c1 (stereo not drawn) [Exe. 039]
- IC50 [1]: 14.2 nM
- IC50 [2]: 500 nM
- IC50 [3]: 54.4 nM

Compound: O=C(Nc1ccc(F)c(Oc2cc(NC(=O)C3CC3)ncn2)c1)Nc1ccc(Cl)c(C(F)(F)F)c1 [Exe. 013]
- IC50 [1]: 14.2 nM
- IC50 [2]: 16100 nM
- IC50 [3]: 50 nM

Compound: CC(F)(F)c1cc(NC(=O)Nc2ccc(Oc3cc(NC(=O)C4CC4)ncn3)c(F)c2)ccc1F [Exe. 106]
- IC50 [1]: 10.4 nM
- IC50 [2]: 850 nM
- IC50 [3]: 465 nM

Compound: CC(N)c1cc(NC(=O)Nc2ccc(Oc3ccnc(NC(=O)C4CC4)c3)c(F)c2)cc(C(F)(F)F)c1 (stereo not drawn) [Exe. 068]
- IC50 [1]: 15.7 nM
- IC50 [2]: 325 nM
- IC50 [3]: 8.4 nM

Compound: O=C(Nc1cccc(Oc2cc(NC(=O)C3CC3)ncn2)c1)Nc1cccc(C(F)(F)F)c1 [Exe. 120]
- IC50 [1]: 12 nM
- IC50 [2]: > 30000 nM
- IC50 [3]: 617 nM

Compound: O=C(Nc1cc(N2CCOCC2=O)cc(C(F)(F)F)c1)Nc1ccc(Oc2ccnc(NC(=O)C3CC3)c2)c(F)c1 [Exe. 171]
- IC50 [1]: 12.4 nM
- IC50 [2]: 1980 nM
- IC50 [3]: 30.2 nM

Compound: Cc1cc(NC(=O)Nc2cccc(C(F)(F)F)c2)cc(Oc2cc(NC(=O)C3CC3)ncn2)c1 [Exe. 094]
- IC50 [1]: 200 nM
- IC50 [2]: 19000 nM
- IC50 [3]: 163 nM

Compound: Cc1ccc(Oc2ccnc(NC(=O)C3CC3)c2)cc1NC(=O)Nc1ccc(F)c(C(C)(F)F)c1 [Exe. 229]
- IC50 [1]: 13.4 nM
- IC50 [2]: 3170 nM
- IC50 [3]: 6.9 nM

Compound: O=C(Nc1ccc(Oc2cc(NC(=O)C3CC3)ncn2)cc1)Nc1cc(F)cc(C(F)(F)F)c1 [Exe. 101]
- IC50 [1]: 12.5 nM
- IC50 [2]: 2600 nM
- IC50 [3]: 682 nM

Compound: O=C(Nc1cc(NC2CC2)cc(C(F)(F)F)c1)Nc1ccc(Oc2ccnc(NC(=O)C3CC3)c2)c(F)c1 [Exe. 049]
- IC50 [1]: 9.9 nM
- IC50 [2]: 642 nM
- IC50 [3]: 51.3 nM

Compound: CN(c1ccc(NC(=O)Nc2cccc(C(F)(F)F)c2)c(F)c1)c1cc(NC(=O)C2CC2)ncn1 [Exe. 123]
- IC50 [1]: 7.4 nM
- IC50 [2]: 8380 nM
- IC50 [3]: 703 nM
